The text below walks through data of patent publication US10478501B2, “Method of treating disorders using a pharmaceutical composition of oligopeptides” (Merck Patent GmbH, priority 2011, dated 2019).

Experiment [1] has as its system 4T1 mouse breast tumour cells. The experiment in a line: Study 003: 4T1 orthotopic model (lung and liver metastases). The format is in vivo, female BALB/c mice. Here is the method: 4T1 mouse breast tumour cells were orthotopically inoculated into the third mammary fat pad of female BALB/c mice. The mice were randomised into groups when the tumors reached a size of approximately 40 mm^3.
The mice in each group received treatment with either Vehicle Control (Placebo), EMD 121974 (75, 150 or 300 mg/kg as Composition according to Example 18) or Taxol® (8 mg/kg). The Vehicle Control and EMD 121974 were administered by subcutaneous injection, daily; Taxol® was administered by intravenous injection three times per week.
Body weight and tumour volume measurements were made for all mice three times per week. The lungs and liver were excised from all mice at termination. For lung metastasis assessment surface metastases of the lungs were counted and for liver metastasis assessment H&E-stained sections of liver were assessed for the presence and number of micro-metastases.

In experiment [2] the test system is MDA-MB-231 breast cancer bone metastases. The experiment in a line: Experimental breast cancer bone metastases in nude rats: DCE-MRI parameters amplitude A and kep. The format is in vivo, nude rats (RNU strain). Here is the method: (§1) Nude rats (RNU strain) are obtained from Harlan-Winkelmann GmbH (Borchen, Germany) at the age of six weeks and housed in a specific pathogen-free environment in a mini barrier system of the central animal facility. Animals are kept under controlled conditions (21±2° C. room temperature, 60% humidity, 12 h light-dark rhythm) and offered autoclaved food and water ad libitum. Sub-confluent MDAMB-231 cells are harvested using 0.05% Trypsin-EDTA (Gibco®; Invitrogen, Karlsruhe, Germany) counted on a Neubauer's chamber and resuspended in RPMI-1640 to a final concentration of 10^5 cells in 200 μl. Rats are anesthetized using a mixture of nitrous oxide (1 l/min), oxygen (0.5 l/min) and isoflurane (1.5 vol. %). Arterial branches of the right hind leg are dissected and 10^5 cells injected into the superficial epigastric artery as described previously.^28 Bone metastases established and are observed exclusively in the femur, tibia and fibula of the right hind leg. 30 days after cancer cell transplantation, rats (n=24) are randomly divided into two groups, one group receiving the cyclic RGD-peptide inhibitor of αvβ3/αvβ5 integrins (cilengitide, EMD 121974^14, 17, 29; Merck, Darmstadt, Germany) intraperitoneally five times per week (75 mg/kg; n=12 rats) and the other, sham-treated group, serving as a control (n=12 rats). The observation period of all animals is 55 days and no rat in the study dies ahead of schedule.
(§2) After the inoculation of cancer cells each rat is imaged at days 30, 35, 45 and 55 using (i) a flat-panel equipped volumetric computed tomograph (Volume CT, Siemens, Germany) and (ii) a 1.5T clinical magnetic resonance scanner (Symphony, Siemens, Erlangen, Germany) equipped with a home-built receive-transmit coil (cylindrical volume resonator with an inner diameter of 83 mm and a usable length of 120 mm). Prior to in vivo imaging with VCT and MRI, rats are anesthetized with nitrous oxide, oxygen and isoflurane as described above.
(§3) T2-weighted imaging is performed using a turbo spin echo sequence (orientation axial, TR 3240 ms, TE 81 ms, matrix 152×256, FOV 90×53.4 mm^2, slice thickness 1.5 mm, 3 averages, scan time 3 min 40 s). For dynamic contrast-enhanced MRI, a saturation recovery turbo flash sequence through the largest diameter of the tumor (orientation axial, TR 373 ms, TE 1.86 ms, matrix 192×144, FOV 130×97.5 mm, slice thickness 5 mm, measurements 512, averages 1, scan time 6 min 55 s) is used. After 20 s baseline, 0.1 mmol/kg Gd-DTPA (Magnevist; Bayer Schering Pharma, Berlin, Germany) is intravenously infused for a time period of 10 s.
(§4) Unenhanced VCT images and MRI-acquired T2-weighted images are analyzed using the Medical Imaging Interaction Toolkit (MITK, Heidelberg, Germany) to determine volumes of osteolytic lesions and soft tissue components, respectively. DCE-MRI acquired data is analyzed using the Dynalab workstation (Mevis Research, Bremen, Germany) according to the two-compartment model of Brix to determine the parameters amplitude A and exchange rate constant kep, as described.^23, 30 Briefly, the injected contrast media is distributed in both compartments (intravascular space and extravascular, interstitial space). The accumulation of contrast agent in these compartments over time is characterized by the amplitude A (associated with blood volume), whereas the exchange of contrast agent between the intravascular space and the interstitial space is characterized by the exchange rate constant kep (associated with vessel permeability). For determination of the respective values of the amplitude A and kep of bone metastases in our study, a region of interest is placed around the soft tissue component on color maps for A and kep, respectively, using the Dynalab workstation (Mevis Research, Bremen, Germany). […]

For experiment [3] the test system is unchanged. Kind of experiment: Experimental breast cancer bone metastases in nude rats: volumes of osteolytic lesions and soft tissue components by VCT and MRI. Particulars: for Mean relative values of the OL (osteolytic lesion) volumes, increase compared to initial values at day 30 / Mean relative STC (soft tissue component) volume, increase compared to initial values at day 30: 75 mg/kg i.p. five times per week from day 30. The format is in vivo, nude rats (RNU strain). As for the experimental part: as §1, §2
VCT imaging is obtained using the following parameters: tube voltage 80 kV, tube current 50 mA, scan time 51 s, rotation speed 10 s, frames per second 120, matrix 512×512, and slice thickness 0.2 mm. Image reconstructions are performed using a modified FDK (Feldkamp Davis Kress) cone beam reconstruction algorithm (kernel H80a; Afra, Erlangen, Germany).
as §3
as §4, with “permeability).” for “permeability). For determination of the respective values of the amplitude A and kep of bone metastases in our study, a region of interest is placed around the soft tissue component on color maps for A and kep, respectively, using the Dynalab workstation (Mevis Research, Bremen, Germany).”

In experiment [4] the test system is MDA-MB468 human breast tumour cells. The experiment in a line: Study 007: MDA-MB-468 primary tumor growth. Particulars: all three dosing groups (75, 150 or 300 mg/kg) daily s.c., composition according to Example 18; Vehicle Control higher than 350 mm^3. The format is in vivo, female BALB/c nu/nu mice. Here is the method: MDA-MB468 human breast tumour cells were orthotopically inoculated into the third mammary fat pad of female BALB/c nu/nu mice. The mice were randomised into groups when the tumors reached a size of approximately 40 mm^3.
The mice in each group received treatment with either Vehicle Control (Placebo) or EMD 121974 (75, 150 or 300 mg/kg as a Composition according to Example 18) by daily subcutaneous injection. Body weight and tumour volume measurements were made for all mice three times per week.

In the case of `CC(C)[C@H]1C(=O)N[C@@H](CCCN=C(N)N)C(=O)NCC(=O)N[C@@H](CC(=O)O)C(=O)N[C@H](Cc2ccccc2)C(=O)N1C` [Cilengitide, cyclo-(Arg-Gly-Asp-DPhe-NMeVal)], in experiment [1] (75, 150 or 300 mg/kg daily s.c. as Composition according to Example 18, significant for all doses), the “spontaneous liver metastasis formation” value is given as “inhibited spontaneous liver metastasis formation comparable to Taxol”. In experiment [1] (daily s.c. as Composition according to Example 18, significant for 300 mg/kg/day), the “spontaneous lung metastasis formation” value is “spontaneous lung metastasis formation comparable to Taxol”. Also, the “DCE-MRI parameter exchange rate constant kep, mean relative value” was 69 % of initial value in experiment [2] (day 35 (controls 86%; p>0.05)), 88 % of initial value in experiment [2] (day 45 (controls 63%; p>0.05)) and 72 % of initial value in experiment [2] (day 55 (controls 40%; p<0.05)). In addition, the “DCE-MRI parameter amplitude A, mean relative value” is 97 % of initial value in experiment [2] (day 35 post inoculation (controls 106%; p>0.05)), 102 % of initial value in experiment [2] (day 45 (controls 125%; p<0.05)) and 93 % of initial value in experiment [2] (day 55 (controls 105%; p<0.05)). Further, the “Mean relative values of the OL (osteolytic lesion) volumes, increase compared to initial values at day 30” value is 1.5 fold in experiment [3] (day 35 (control 1.9 fold)); 2.4 fold in experiment [3] (day 45 (control 4.5 fold, p<0.05)); 3.5 fold in experiment [3] (day 55 (control 9.7 fold, p<0.01)). The “Mean relative STC (soft tissue component) volume, increase compared to initial values at day 30” value stood at 2.2 fold in experiment [3] (day 35 (control 2.3 fold)); 4.9 fold in experiment [3] (day 45 (control 10.4 fold, p<0.05)); 6.3 fold in experiment [3] (day 55 (control 22.5 fold, p<0.01)). The “rats showing new bone formation under therapy as imaged by VCT” value in experiment [3] (treatment group, three of 12 rats, not in control animals) is recorded as 25%. Besides, the “tumour volume on day 60” value in experiment [4] is given as “below 200 mm^3”.
